Laboratory results taken from PMC7613998, “Development of selective inhibitors of phosphatidylinositol 3-kinase C2α” (Nature Chemical Biology, 2022).

How the values were obtained:
Test in all cases: biochemical
Design in all cases: SelectScreen Z'-LYTE purified kinase panel, per cent inhibition, mean of two points
Settings in all cases: (μM)=Km app
GSK3B (GSK3 beta) = GSK3B (GSK3 beta) (Homo sapiens, UniProt P49841)
ZAP70 = target: T1, ZAP70 (Homo sapiens, UniProt P43403)
T1 sequence (P43403 1-619): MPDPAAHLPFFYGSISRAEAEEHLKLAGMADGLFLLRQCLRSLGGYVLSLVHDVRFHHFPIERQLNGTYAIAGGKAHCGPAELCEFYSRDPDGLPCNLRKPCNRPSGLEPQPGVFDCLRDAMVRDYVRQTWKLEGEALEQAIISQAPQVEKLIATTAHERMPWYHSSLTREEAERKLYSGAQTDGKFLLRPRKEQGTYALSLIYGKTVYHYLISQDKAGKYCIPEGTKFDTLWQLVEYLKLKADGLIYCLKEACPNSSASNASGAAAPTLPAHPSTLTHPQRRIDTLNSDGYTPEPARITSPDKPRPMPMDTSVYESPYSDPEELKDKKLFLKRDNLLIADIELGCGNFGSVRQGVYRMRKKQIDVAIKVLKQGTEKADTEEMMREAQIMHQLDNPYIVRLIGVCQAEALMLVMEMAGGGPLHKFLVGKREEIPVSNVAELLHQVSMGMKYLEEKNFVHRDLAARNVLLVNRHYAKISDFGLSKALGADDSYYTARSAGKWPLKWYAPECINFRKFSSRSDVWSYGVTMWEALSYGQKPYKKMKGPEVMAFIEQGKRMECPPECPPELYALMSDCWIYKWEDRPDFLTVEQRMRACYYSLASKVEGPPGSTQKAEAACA

FLT3 = target: T2, FLT3 (Homo sapiens, UniProt P36888)
T2 sequence (P36888 1-993): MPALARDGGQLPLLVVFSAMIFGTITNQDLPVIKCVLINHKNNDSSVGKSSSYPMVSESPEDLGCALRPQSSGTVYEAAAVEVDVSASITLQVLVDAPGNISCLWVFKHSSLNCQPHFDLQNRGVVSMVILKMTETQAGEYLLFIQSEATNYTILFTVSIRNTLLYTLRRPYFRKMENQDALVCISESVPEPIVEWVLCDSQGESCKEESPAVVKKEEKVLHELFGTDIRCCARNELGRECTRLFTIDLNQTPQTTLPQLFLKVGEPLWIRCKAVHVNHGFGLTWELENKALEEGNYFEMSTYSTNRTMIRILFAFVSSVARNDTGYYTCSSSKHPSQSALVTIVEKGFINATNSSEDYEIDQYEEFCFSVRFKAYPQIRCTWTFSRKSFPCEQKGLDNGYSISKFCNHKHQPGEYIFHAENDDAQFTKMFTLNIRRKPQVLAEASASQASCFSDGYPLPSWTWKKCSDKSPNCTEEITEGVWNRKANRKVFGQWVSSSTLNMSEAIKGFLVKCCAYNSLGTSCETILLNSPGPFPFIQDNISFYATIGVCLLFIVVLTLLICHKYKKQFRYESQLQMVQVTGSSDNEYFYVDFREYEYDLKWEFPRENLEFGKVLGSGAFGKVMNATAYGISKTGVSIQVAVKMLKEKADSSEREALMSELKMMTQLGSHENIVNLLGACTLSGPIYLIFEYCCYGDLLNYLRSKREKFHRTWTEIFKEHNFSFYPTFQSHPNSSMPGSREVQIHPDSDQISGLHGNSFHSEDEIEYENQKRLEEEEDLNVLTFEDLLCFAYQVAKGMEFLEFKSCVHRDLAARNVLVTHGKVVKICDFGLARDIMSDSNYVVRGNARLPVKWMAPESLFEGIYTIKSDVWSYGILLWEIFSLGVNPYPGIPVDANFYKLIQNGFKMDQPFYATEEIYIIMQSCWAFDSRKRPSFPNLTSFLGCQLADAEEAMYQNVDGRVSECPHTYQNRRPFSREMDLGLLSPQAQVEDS

JAK3 = target: T3, JAK3 (Homo sapiens, UniProt P52333)
T3 sequence (P52333 1-1124): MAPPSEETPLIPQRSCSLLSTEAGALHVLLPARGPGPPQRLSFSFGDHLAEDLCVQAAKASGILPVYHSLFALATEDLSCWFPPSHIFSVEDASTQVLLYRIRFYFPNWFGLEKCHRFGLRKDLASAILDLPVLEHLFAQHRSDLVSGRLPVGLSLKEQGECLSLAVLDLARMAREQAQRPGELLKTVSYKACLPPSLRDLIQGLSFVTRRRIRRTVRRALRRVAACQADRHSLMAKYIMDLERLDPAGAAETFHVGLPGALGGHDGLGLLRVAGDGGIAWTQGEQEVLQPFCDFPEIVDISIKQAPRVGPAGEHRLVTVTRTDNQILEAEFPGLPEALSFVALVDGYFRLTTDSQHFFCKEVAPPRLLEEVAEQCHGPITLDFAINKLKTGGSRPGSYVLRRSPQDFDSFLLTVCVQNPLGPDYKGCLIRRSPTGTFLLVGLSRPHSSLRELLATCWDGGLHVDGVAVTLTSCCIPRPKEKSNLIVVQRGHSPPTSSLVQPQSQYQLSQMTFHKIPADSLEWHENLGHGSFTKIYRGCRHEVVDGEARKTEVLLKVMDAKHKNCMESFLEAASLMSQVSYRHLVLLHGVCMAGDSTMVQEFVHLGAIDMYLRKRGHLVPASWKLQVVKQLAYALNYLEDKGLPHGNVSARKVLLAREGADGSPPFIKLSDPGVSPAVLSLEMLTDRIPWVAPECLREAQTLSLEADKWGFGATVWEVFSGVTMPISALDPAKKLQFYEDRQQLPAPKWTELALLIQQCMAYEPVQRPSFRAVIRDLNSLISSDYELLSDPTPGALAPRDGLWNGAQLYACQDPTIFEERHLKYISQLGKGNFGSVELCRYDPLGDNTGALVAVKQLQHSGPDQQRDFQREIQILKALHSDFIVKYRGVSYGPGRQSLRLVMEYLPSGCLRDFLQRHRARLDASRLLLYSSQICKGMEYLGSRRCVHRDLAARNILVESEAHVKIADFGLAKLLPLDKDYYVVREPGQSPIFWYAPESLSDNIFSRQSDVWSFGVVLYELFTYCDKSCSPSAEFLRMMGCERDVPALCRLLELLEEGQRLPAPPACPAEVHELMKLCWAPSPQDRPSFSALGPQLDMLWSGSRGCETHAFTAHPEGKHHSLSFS

Sequence of GSK3B (GSK3 beta) (P49841 whole entry): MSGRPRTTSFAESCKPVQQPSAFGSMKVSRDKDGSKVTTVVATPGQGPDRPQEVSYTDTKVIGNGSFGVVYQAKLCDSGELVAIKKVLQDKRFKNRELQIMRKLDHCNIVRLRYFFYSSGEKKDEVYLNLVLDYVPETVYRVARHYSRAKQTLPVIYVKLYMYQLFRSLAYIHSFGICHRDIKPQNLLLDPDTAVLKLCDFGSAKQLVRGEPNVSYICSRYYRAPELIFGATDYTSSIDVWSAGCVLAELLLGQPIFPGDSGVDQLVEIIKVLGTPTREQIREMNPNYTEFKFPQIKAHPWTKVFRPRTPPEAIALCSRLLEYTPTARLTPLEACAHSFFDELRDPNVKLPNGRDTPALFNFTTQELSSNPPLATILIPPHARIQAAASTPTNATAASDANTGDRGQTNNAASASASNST

| inhibition at 1 µM (GSK3B (GSK3 beta)) | inhibition at 3 µM (GSK3B (GSK3 beta)) | inhibition at 10 µM (GSK3B (GSK3 beta)) | inhibition at 1 µM (ZAP70) | inhibition at 3 µM (ZAP70) | inhibition at 10 µM (ZAP70) | inhibition at 1 µM (FLT3) | inhibition at 3 µM (FLT3) | inhibition at 10 µM (FLT3) | inhibition at 1 µM (JAK3) | inhibition at 3 µM (JAK3) | inhibition at 10 µM (JAK3) | SMILES |
| --- | --- | --- | --- | --- | --- | --- | --- | --- | --- | --- | --- | --- |
| -0.953% | -1.98% | -4.59% | 17.4% | 12.6% | 14.5% | 12.3% | 11% | 12.7% | 1.86% | -1.56% | -1.58% | CS(=O)(=O)Nc1cccc(-c2csc(NC(=O)CSc3nc4nccnc4c(=O)n3CCc3ccccc3)n2)c1 [compound 3, PITCOIN3] |
| 2.87% | 1.81% | 2.24% | 13.7% | 11.6% | 9.43% | 9.16% | 8.82% | 8.33% | -0.818% | -2.14% | 0.865% | O=C(CSc1nc2nccnc2c(=O)n1CCc1ccccc1)Nc1nccs1 [compound 1, PITCOIN1] |
